Reference: patent US6737383B1, “Herbicidal oxadiazolidines” (priority 1999, dated 2004)

Columns and labels:
Green foxtail [1] = assay: Test D green foxtail; type: in vivo
How it was run: (§1)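 Greenhouse pots, sandy loam, single species per pot. Preemergence tests: soil-surface application ≤1 day after planting. Compound formulated in non-phytotoxic solvent with surfactant. Visual rating 14–21 DAT, scale 0–100.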

common pursiane = assay: Test D common purslane; type: in vivo, Portulaca oleracea; settings: Preemergence, 0 to 100 scale
How it was run: as §1

bermuda-grass = assay: Test D bermudagrass; type: in vivo, Cynodon dactylon; settings: Preemergence, 0 to 100 scale
How it was run: as §1

purple nutsedge = assay: Test D purple nutsedge; type: in vivo, Cyperus rotundus; settings: Preemergence, 0 to 100 scale
How it was run: as §1

common groundsel = assay: Test D common groundsel; type: in vivo, Senecio vulgaris; settings: Preemergence, 0 to 100 scale
How it was run: as §1

Spanishneedles = assay: Test D Spanishneedles; type: in vivo, Bidens bipinnata; settings: Preemergence, 0 to 100 scale
How it was run: as §1

pitted morningglory = assay: Test D pitted morningglory; type: in vivo, Ipomoea lacunosa; settings: Preemergence, 0 to 100 scale
How it was run: as §1

Green foxtail [2] = assay: Test D green foxtail; type: in vivo; settings: Preemergence, 0 to 100 scale
How it was run: as §1

dallisgrass = assay: Test D dallisgrass; type: in vivo, Paspalum dilatatum; settings: Preemergence, 0 to 100 scale
How it was run: as §1

surinam grass = assay: Test D surinam grass; type: in vivo, Brachiaria decumbens; settings: Preemergence, 0 to 100 scale
How it was run: as §1

itchgrass = assay: Test D itchgrass; type: in vivo, Rottboellia exaltata; settings: Preemergence, 0 to 100 scale
How it was run: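 Scoring used a 0–100 visual injury scale, with 0 meaning no effect and 100 complete control, assessed 14–21 days after application alongside untreated pots. Preemergence treatments went onto sandy loam surfaces of separately potted seeds within a day of sowing.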

guineagrass = assay: Test D guineagrass; type: in vivo, Panicum maximum; settings: Preemergence, 0 to 100 scale
How it was run: as §1

Alexandergrass = assay: Test D Alexandergrass; type: in vivo, Brachiaria plantaginea; settings: Preemergence, 0 to 100 scale
How it was run: as §1

large crabgrass = assay: Test D large crabgrass; type: in vivo, Digitaria sanguinalis; settings: Preemergence, 0 to 100 scale
How it was run: as §1

common ragweed = assay: Test D common ragweed; type: in vivo, Ambrosia elatior; settings: Preemergence, 0 to 100 scale
How it was run: as §1

[3] = Rate 64 g/ha, Preemergence; 0 to 100 scale, 0 no injury, 100 complete control
[4] = Rate 250 g/ha; Preemergence; 0 to 100 scale
[5] = Rate 500 g/ha, Preemergence; 0 to 100 scale
[6] = Rate 16 g/ha, 0 no injury, 100 complete control
[7] = Rate 32 g/ha, 0 no injury, 100 complete control
[8] = Rate 64 g/ha, 0 no injury, 100 complete control
[9] = Rate 125 g/ha, Preemergence; 0 to 100 scale, 0 no injury, 100 complete control
[10] = Rate 125 g/ha, 0 no injury, 100 complete control

CC(C)N(C(=O)n1oc(=O)n(C2CCCCC2)c1=O)c1ccccc1 [Compound 112]
Plant response rating, Green foxtail (Green foxtail [1]; Preemergence; Rate 16 g/ha; 0 to 100 scale, 0 no injury, 100 complete control): 0
Plant response rating, Green foxtail (Green foxtail [1]; Preemergence; Rate 32 g/ha; 0 to 100 scale, 0 no injury, 100 complete control): 0
Plant response rating, Green foxtail (Green foxtail [1]; Rate 16 g/ha; Preemergence; 0 to 100 scale, 0 no injury, 100 complete control): 0
Plant response rating, Green foxtail (Green foxtail [1]; Rate 32 g/ha; Preemergence; 0 to 100 scale, 0 no injury, 100 complete control): 98
Green foxtail plant response rating (Green foxtail [1]; [3]): 85
Plant response rating, Green foxtail (Green foxtail [1]; [3]): 85
Plant response rating, Green foxtail (Green foxtail [1]; [4]): 98
Plant response rating, Green foxtail (Green foxtail [1]; [5]): 0
Plant response rating, C. purslane (common pursiane; [6]): 0
Plant response rating, C. purslane (common pursiane; [7]): 0
Plant response rating, C. purslane (common pursiane; [8]): 0
Plant response rating, C. purslane (common pursiane; Rate 250 g/ha): 0
Plant response rating, C. purslane (common pursiane; Rate 500 g/ha): 0
Plant response rating, Bermudagrass (bermuda-grass; [6]): 60
Plant response rating, Bermudagrass (bermuda-grass; [7]): 75
Plant response rating, Bermudagrass (bermuda-grass; [8]): 85
Plant response rating, Bermudagrass (bermuda-grass; Rate 250 g/ha): 98
Plant response rating, Bermudagrass (bermuda-grass; Rate 500 g/ha): 100
Plant response rating, Purple nutsedge (purple nutsedge; [6]): 0
Plant response rating, Purple nutsedge (purple nutsedge; [7]): 0
Purple nutsedge plant response rating (purple nutsedge; [8]): 0
Plant response rating, Purple nutsedge (purple nutsedge; Rate 250 g/ha): 0
Plant response rating, Purple nutsedge (purple nutsedge; Rate 500 g/ha): 40
Plant response rating, Com. groundsel (common groundsel; [6]): 0
Plant response rating, Com. groundsel (common groundsel; [7]): 0
Plant response rating, Com. groundsel (common groundsel; [8]): 0
Plant response rating, Com. groundsel (common groundsel; Rate 250 g/ha): 0
Plant response rating, Com. groundsel (common groundsel; Rate 500 g/ha): 10
Plant response rating, Spanishneedles (Spanishneedles; [6]): 0
Plant response rating, Spanishneedles (Spanishneedles; [7]): 0
Spanishneedles plant response rating (Spanishneedles; [8]): 0
Plant response rating, Spanishneedles (Spanishneedles; Rate 500 g/ha): 10
Plant response rating, P. morninglory (pitted morningglory; [6]): 0
Plant response rating, P. morninglory (pitted morningglory; [7]): 0
Plant response rating, P. morninglory (pitted morningglory; [8]): 0
Plant response rating, P. morninglory (pitted morningglory; Rate 250 g/ha): 0
Plant response rating, P. morninglory (pitted morningglory; Rate 500 g/ha): 10
Plant response rating, Green foxtail (Green foxtail [2]; Rate 250 g/ha): 98
Plant response rating, Green foxtail (Green foxtail [2]; Rate 500 g/ha): 0
Plant response rating, Dallisgrass (dallisgrass; [6]): 30
Plant response rating, Dallisgrass (dallisgrass; [7]): 65
Plant response rating, Dallisgrass (dallisgrass; [8]): 70
Plant response rating, Dallisgrass (dallisgrass; Rate 250 g/ha): 100
Plant response rating, Dallisgrass (dallisgrass; Rate 500 g/ha): 100
Plant response rating, Surinam grass (surinam grass; [6]): 0
Plant response rating, Surinam grass (surinam grass; [7]): 0
Surinam grass plant response rating (surinam grass; [8]): 0
Plant response rating, Surinam grass (surinam grass; Rate 250 g/ha): 0
Plant response rating, Surinam grass (surinam grass; Rate 500 g/ha): 98
Plant response rating, Itchgrass (itchgrass; [6]): 0
Plant response rating, Itchgrass (itchgrass; [7]): 0
Plant response rating, Itchgrass (itchgrass; [8]): 0
Plant response rating, Itchgrass (itchgrass; Rate 250 g/ha): 0
Plant response rating, Itchgrass (itchgrass; Rate 500 g/ha): 80
Plant response rating, Guineagrass (guineagrass; [6]): 0
Plant response rating, Guineagrass (guineagrass; [7]): 0
Plant response rating, Guineagrass (guineagrass; [8]): 40
Plant response rating, Guineagrass (guineagrass; Rate 250 g/ha): 90
Plant response rating, Guineagrass (guineagrass; Rate 500 g/ha): 100
Plant response rating, Alexandergrass (Alexandergrass; [6]): 0
Plant response rating, Alexandergrass (Alexandergrass; [7]): 0
Plant response rating, Alexandergrass (Alexandergrass; [8]): 0
Plant response rating, Alexandergrass (Alexandergrass; Rate 250 g/ha): 80
Plant response rating, Alexandergrass (Alexandergrass; Rate 500 g/ha): 100
Plant response rating, Large crabgrass (large crabgrass; [6]): 10
Plant response rating, Large crabgrass (large crabgrass; [7]): 10
Plant response rating, Large crabgrass (large crabgrass; [8]): 10
Plant response rating, Large crabgrass (large crabgrass; Rate 250 g/ha): 100
Plant response rating, Large crabgrass (large crabgrass; Rate 500 g/ha): 100
Plant response rating, C. ragweed (common ragweed; [6]): 0
Plant response rating, C. ragweed (common ragweed; [7]): 0
Plant response rating, C. ragweed (common ragweed; [8]): 0
Plant response rating, C. ragweed (common ragweed; Rate 250 g/ha): 0
Plant response rating, C. ragweed (common ragweed; Rate 500 g/ha): 0

CC(C)N(C(=O)n1oc(=O)n(C)c1=O)c1ccc(F)cc1 [Compound 138]
Green foxtail plant response rating (Green foxtail [1]; [3]): 100
Plant response rating, Green foxtail (Green foxtail [1]; [3]): 100
Green foxtail plant response rating (Green foxtail [1]; [9]): 100
Plant response rating, Green foxtail (Green foxtail [1]; [9]): 100
Plant response rating, Green foxtail (Green foxtail [1]; [4]): 100
Plant response rating, Green foxtail (Green foxtail [1]; [5]): 100
Plant response rating, C. purslane (common pursiane; [8]): 0
Plant response rating, C. purslane (common pursiane; [10]): 30
Plant response rating, C. purslane (common pursiane; Rate 250 g/ha): 100
Plant response rating, C. purslane (common pursiane; Rate 500 g/ha): 100
Plant response rating, Bermudagrass (bermuda-grass; [8]): 100
Plant response rating, Bermudagrass (bermuda-grass; [10]): 100
Plant response rating, Bermudagrass (bermuda-grass; Rate 250 g/ha): 100
Plant response rating, Bermudagrass (bermuda-grass; Rate 500 g/ha): 100
Purple nutsedge plant response rating (purple nutsedge; [8]): 30
Purple nutsedge plant response rating (purple nutsedge; [10]): 65
Plant response rating, Purple nutsedge (purple nutsedge; Rate 250 g/ha): 75
Plant response rating, Purple nutsedge (purple nutsedge; Rate 500 g/ha): 80
Plant response rating, Com. groundsel (common groundsel; [8]): 40
Plant response rating, Com. groundsel (common groundsel; [10]): 100
Plant response rating, Com. groundsel (common groundsel; Rate 250 g/ha): 100
Plant response rating, Com. groundsel (common groundsel; Rate 500 g/ha): 100
Spanishneedles plant response rating (Spanishneedles; [8]): 10
Spanishneedles plant response rating (Spanishneedles; [10]): 10
Plant response rating, Spanishneedles (Spanishneedles; Rate 250 g/ha): 30
Plant response rating, Spanishneedles (Spanishneedles; Rate 500 g/ha): 75
Plant response rating, P. morninglory (pitted morningglory; [8]): 65
Plant response rating, P. morninglory (pitted morningglory; [10]): 65
Plant response rating, P. morninglory (pitted morningglory; Rate 250 g/ha): 65
Plant response rating, P. morninglory (pitted morningglory; Rate 500 g/ha): 65
Plant response rating, Green foxtail (Green foxtail [2]; Rate 250 g/ha): 100
Plant response rating, Green foxtail (Green foxtail [2]; Rate 500 g/ha): 100
Plant response rating, Dallisgrass (dallisgrass; [8]): 100
Plant response rating, Dallisgrass (dallisgrass; [10]): 100
Plant response rating, Dallisgrass (dallisgrass; Rate 250 g/ha): 100
Plant response rating, Dallisgrass (dallisgrass; Rate 500 g/ha): 100
Surinam grass plant response rating (surinam grass; [8]): 40
Surinam grass plant response rating (surinam grass; [10]): 85
Plant response rating, Surinam grass (surinam grass; Rate 250 g/ha): 98
Plant response rating, Surinam grass (surinam grass; Rate 500 g/ha): 100
Plant response rating, Itchgrass (itchgrass; [8]): 30
Plant response rating, Itchgrass (itchgrass; [10]): 80
Plant response rating, Itchgrass (itchgrass; Rate 250 g/ha): 100
Plant response rating, Itchgrass (itchgrass; Rate 500 g/ha): 100
Plant response rating, Guineagrass (guineagrass; [8]): 100
Plant response rating, Guineagrass (guineagrass; [10]): 100
Plant response rating, Guineagrass (guineagrass; Rate 250 g/ha): 100
Plant response rating, Guineagrass (guineagrass; Rate 500 g/ha): 100
Plant response rating, Alexandergrass (Alexandergrass; [8]): 80
Plant response rating, Alexandergrass (Alexandergrass; [10]): 80
Plant response rating, Alexandergrass (Alexandergrass; Rate 250 g/ha): 98
Plant response rating, Alexandergrass (Alexandergrass; Rate 500 g/ha): 100
Plant response rating, Large crabgrass (large crabgrass; [8]): 100
Plant response rating, Large crabgrass (large crabgrass; [10]): 100
Plant response rating, Large crabgrass (large crabgrass; Rate 250 g/ha): 100
Plant response rating, Large crabgrass (large crabgrass; Rate 500 g/ha): 100
Plant response rating, C. ragweed (common ragweed; [8]): 10
Plant response rating, C. ragweed (common ragweed; [10]): 30
Plant response rating, C. ragweed (common ragweed; Rate 250 g/ha): 60
Plant response rating, C. ragweed (common ragweed; Rate 500 g/ha): 100
